Reference: US9650340B2, “5-fluoro-N-(pyridin-2-yl)pyridin-2-amine derivatives containing a sulfoximine group” (BAYER PHARMA AKTIENGESELLSCHAFT, priority 2012, dated 2017)
pIC50: −log10 of the molar value. Where a name gives a salt, the structure may show the parent alone. Read-outs that look alike come from different tables or passages of the source.

Tests used:
CDK9/CycT1 = molecular target: T1, CDK9/CycT1 (Homo sapiens, UniProt P50750); experiment: CDK9/CycT1 kinase assay (TR-FRET, 10 μM ATP); format: biochemical; conditions: Method 1a
T1 construct: Recombinant full-length His-tagged human CDK9 and CycT1; His; purchased Invitrogen PV4131; host or cells: insect cells
From the text: 1a. CDK9/CyeT1 Kinase Assay:
CDK9/CycT1-inhibitory activity of compounds of the present invention was quantified employing the CDK9/CycT1 TR-FRET assay as described in the following paragraphs:
Recombinant full-length His-tagged human CDK9 and CycT1, expressed in insect cells and purified by Ni-NTA affinity chromatography, were purchased from Invitrogen (Cat. No PV4131). As substrate for the kinase reaction biotinylated peptide biotin-Ttds-[…] (C-terminus in amid form) was used which can be purchased e.g. form the company JERINI Peptide Technologies (Berlin, Germany). For the assay 50 nl of a 100 fold concentrated solution of the test compound in DMSO was pipetted into a black low volume 384 well microtiter plate (Greiner Bio-One, Frickenhausen, Germany), 2 μl of a solution of CDK9/CycT1 in aqueous assay buffer [50 mM Tris/HCl pH 8.0, 10 mM MgCl2, 1.0 mM dithiothreitol, 0.1 mM sodium ortho-vanadate, 0.01% (v/v) Nonidet-P40 (Sigma)] were added and the mixture was incubated for 15 min at 22° C. to allow pre-binding of the test compounds to the enzyme before the start of the kinase reaction.
The resulting mixture was incubated 1 h at 22° C. to allow the formation of complex between the phosphorylated biotinylated peptide and the detection reagents. Subsequently the amount of phosphorylated substrate was evaluated by measurement of the resonance energy transfer from the Eu-chelate to the streptavidine-XL.

[1] = system: Caco-2, human colorectal carcinoma cells; experiment: Proliferation assay, Caco-2 (crystal violet); format: cell-based; conditions: Caco-2, 4 days, read-out: Inhibition of Caco-2 cell proliferation IC50
Method: (§1) Cultivated tumour cells (HeLa, human cervical tumour cells, ATCC CCL-2; NCI-H460, human non-small cell lung carcinoma cells, ATCC HTB-177; A2780, human ovarian carcinoma cells, ECACC #93112519; DU 145, hormone-independent human prostate carcinoma cells, ATCC HTB-81; HeLa-MaTu-ADR, multidrug-resistant human cervical carcinoma cells, EPO-GmbH Berlin; Caco-2, human colorectal carcinoma cells, ATCC HTB-37; B16F10, mouse melanoma cells, ATCC CRL-6475) were plated at a density of 5,000 cells/well (DU145, HeLa-MaTu-ADR), 3,000 cells/well (NCI-H460, HeLa), 2,500 cells/well (A2780), 1,500 cells/well (Caco-2), or 1,000 cells/well (B16F10) in a 96-well multititer plate in 200 μL of their respective growth medium supplemented 10% fetal calf serum. After 24 hours, the cells of one plate (zero-point plate) were stained with crystal violet (see below), while the medium of the other plates was replaced by fresh culture medium (200 μl), to which the test substances were added in various concentrations (0 μM, as well as in the range of 0.001-10 μM; the final concentration of the solvent dimethyl sulfoxide was 0.5%). The cells were incubated for 4 days in the presence of test substances. Cell proliferation was determined by staining the cells with crystal violet: the cells were fixed by adding 20 μl/measuring point of an 11% glutaric aldehyde solution for 15 minutes at room temperature. After three washing cycles of the fixed cells with water, the plates were dried at room temperature. The cells were stained by adding 100 μl/measuring point of a 0.1% crystal violet solution (pH 3.0). After three washing cycles of the stained cells with water, the plates were dried at room temperature. The dye was dissolved by adding 100 μl/measuring point of a 10% acetic acid solution. The extinction was determined by photometry at a wavelength of 595 nm. The change of cell number, in percent, was calculated by normalization of the measured values to the extinction values of the zero-point plate (=0%) and the extinction of the untreated (0 μm) cells (=100%). The IC50 values (inhibitory concentration at 50% of maximal effect) were determined by means of a 4 parameter fit. Non-adherent MOLM-13 human acute myeloid leukemia cells (DSMZ ACC 554) were seeded at a density of 5,000 cells/well in a 96-well multititer plate in 100 μL of growth medium supplemented 10% fetal calf serum. After 24 hours, cell viability of one plate (zero-point plate) was determined with the Cell Titre-Glo Luminescent Cell Viability Assay (Promega), while 50 μL of test compound containing medium was added to the wells of the other plates (final concentrations in the range of 0.001-10 μM and DMSO controls; the final concentration of the solvent dimethyl sulfoxide was 0.5%). Cell viability was assessed after 72-hour exposure with the Cell Titre-Glo Luminescent Cell Viability Assay (Promega).

[2] = system: MOLM-13 human acute myeloid leukemia cells; experiment: Proliferation assay, MOLM-13 (Cell Titre-Glo); format: cell-based; conditions: MOLM-13, 72-hour exposure, read-out: Inhibition of MOLM-13 cell proliferation IC50
Method: as §1

[3] = system: A2780, human ovarian carcinoma cells; experiment: Proliferation assay, A2780 (crystal violet); format: cell-based; conditions: A2780, 4 days, read-out: Inhibition of A2780 cell proliferation IC50
Method: as §1

T1 sequence (P50750 whole entry): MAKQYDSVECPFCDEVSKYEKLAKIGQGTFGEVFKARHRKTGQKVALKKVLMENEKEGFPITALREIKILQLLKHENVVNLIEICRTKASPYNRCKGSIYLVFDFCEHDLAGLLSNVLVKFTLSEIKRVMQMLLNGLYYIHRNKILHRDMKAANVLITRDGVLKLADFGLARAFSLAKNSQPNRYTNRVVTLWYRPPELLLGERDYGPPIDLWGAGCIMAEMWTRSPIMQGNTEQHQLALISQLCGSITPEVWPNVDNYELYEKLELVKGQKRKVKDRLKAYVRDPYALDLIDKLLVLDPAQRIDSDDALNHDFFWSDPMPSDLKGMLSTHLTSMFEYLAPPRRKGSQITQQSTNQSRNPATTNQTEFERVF
T1 sequence (O60563 whole entry partner): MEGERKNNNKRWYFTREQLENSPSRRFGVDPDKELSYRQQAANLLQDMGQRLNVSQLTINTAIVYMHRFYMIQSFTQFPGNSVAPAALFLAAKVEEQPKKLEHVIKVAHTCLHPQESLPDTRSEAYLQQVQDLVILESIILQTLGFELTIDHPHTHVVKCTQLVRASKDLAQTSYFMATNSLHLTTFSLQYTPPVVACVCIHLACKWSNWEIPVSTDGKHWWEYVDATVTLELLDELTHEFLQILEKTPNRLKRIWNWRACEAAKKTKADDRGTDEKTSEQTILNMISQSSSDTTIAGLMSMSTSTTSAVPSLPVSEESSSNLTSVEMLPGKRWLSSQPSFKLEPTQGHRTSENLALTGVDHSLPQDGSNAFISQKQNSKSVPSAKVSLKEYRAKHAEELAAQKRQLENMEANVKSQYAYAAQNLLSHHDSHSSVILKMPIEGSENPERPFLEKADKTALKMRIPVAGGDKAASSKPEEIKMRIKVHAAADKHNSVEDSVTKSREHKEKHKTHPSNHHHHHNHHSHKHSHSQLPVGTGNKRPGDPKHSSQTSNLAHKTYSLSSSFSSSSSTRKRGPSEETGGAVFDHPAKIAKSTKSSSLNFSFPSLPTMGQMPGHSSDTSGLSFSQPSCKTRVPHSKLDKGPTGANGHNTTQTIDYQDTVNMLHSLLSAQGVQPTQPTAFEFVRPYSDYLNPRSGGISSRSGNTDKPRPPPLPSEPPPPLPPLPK

Compound | pIC50 (CDK9/CycT1) | pIC50 ([1]; Homo sapiens, Caco-2, 96 h) | further results
CCOc1cc(F)ccc1-c1cc(Nc2cc(CS(C)(=O)=NC(=O)C(F)(F)F)cc(F)n2)ncc1F (racemic) [Example 27, (rac)-N-{[(2-{[4-(2-Ethoxy-4-fluoro-phenyl)-5-fluoropyridin-2-yl]amino}-6-fluoropyridin-4-yl)methyl]-(methyl)oxido-λ^6-sulfanylidene}-2,2,2-trifluoroacetamide] | 8.05 | 6.89 | 
COc1cc(F)ccc1-c1cc(Nc2cc(CS(C)(=N)=O)ccn2)ncc1F (single isomer, unassigned; (+)) [Example 2, (+)-5-Fluoro-4-(4-fluoro-2-methoxyphenyl)-N-{4-[(S-methylsulfonimidoyl)methyl]pyridin-2-yl}pyridin-2-amine] |  |  | pIC50 ([2]; Homo sapiens, MOLM-13, 72 h): 7.54; pIC50 [1]: 7.21; pIC50 [3]: 6.96
COc1cc(F)ccc1-c1cc(Nc2cc(CS(C)(=O)=NC(=O)C(F)(F)F)cc(C(F)(F)F)n2)ncc1F (single isomer, unassigned; (+)) [Example 24, (+)-2,2,2-Trifluoro-N-[{[2-{[5-fluoro-4-(4-fluoro-2-methoxyphenyl)pyridin-2-yl]amino}-6-(trifluoromethyl)-pyridin-4-yl]methyl}(methyl)oxido-λ^6-sulfanylidene]acetamide] | 7.74 | 7.39 | 
CCOc1cc(F)ccc1-c1cc(Nc2cc(CS(C)(=N)=O)cc(F)n2)ncc1F (single isomer, unassigned; (+)) [Example 28, (+)-4-(2-Ethoxy-4-fluorophenyl)-5-fluoro-N-{6-fluoro-4-[(S-methylsulfonimidoyl)methyl]pyridin-2-yl}pyridin-2-amine] | 8.30 | 6.92 | 
COc1cc(F)ccc1-c1cc(Nc2cc(CS(C)(=N)=O)cc(C)n2)ncc1F (single isomer, unassigned; (+)) [Example 32, (+)-5-Fluoro-4-(4-fluoro-2-methoxyphenyl)-N-{6-methyl-4-[(S-methylsulfonimidoyl)methyl]pyridin-2-yl}pyridin-2-amine] |  | 7.40 | pIC50 ([2]; Homo sapiens, MOLM-13, 72 h): 7.77; pIC50 ([3]; Homo sapiens, A2780, 96 h): 8.00
COc1cc(F)ccc1-c1cc(Nc2cc(CS(C)(=O)=NC(=O)C(F)(F)F)cc(C(F)(F)F)n2)ncc1F (single isomer, unassigned; (-)) [Example 25, (−)-2,2,2-Trifluoro-N-[{[2-{[5-fluoro-4-(4-fluoro-2-methoxyphenyl)pyridin-2-yl]amino}-6-(trifluoromethyl)-pyridin-4-yl]methyl}(methyl)oxido-λ^6-sulfanylidene]acetamide] | 7.82 |  | pIC50 [1]: 7.35
COc1cc(F)ccc1-c1cc(Nc2cc(CS(C)(=N)=O)cc(C)n2)ncc1F (single isomer, unassigned; (-)) [Example 33, (−)-5-Fluoro-4-(4-fluoro-2-methoxyphenyl)-N-{6-methyl-4-[(S-methylsulfonimidoyl)methyl]pyridin-2-yl}pyridin-2-amine] |  |  | pIC50 [2]: 7.64; pIC50 [1]: 7.52
COc1cc(F)ccc1-c1cc(Nc2cc(CS(C)(=N)=O)ccn2)ncc1F (single isomer, unassigned; enantiomer 1) [Example 16, 5-Fluoro-4-(4-fluoro-2-methoxyphenyl)-N-{4-[(S-methylsulfonimidoyl)methyl]pyridin-2-yl}pyridin-2-amine hydrochloride; enantiomer 1] |  |  | pIC50 [1]: 6.92

Further lines, with some results ahead:

pIC50 (CDK9/CycT1) | pIC50 ([1]; Homo sapiens, Caco-2, 96 h) | Compound | further results
8.30 | 6.96 | COc1cc(F)ccc1-c1cc(Nc2cc(CS(C)(=N)=O)c(Br)c(C)n2)ncc1F (racemic) [Example 5, (rac)-5-Bromo-N-[5-fluoro-4-(4-fluoro-2-methoxyphenyl)pyridin-2-yl]-6-methyl-4-[(S-methylsulfonimidoyl)methyl]pyridin-2-amine] | 
8.70 | 7.51 | COc1cc(CS(C)(=N)=O)cc(Nc2cc(-c3ccc(F)cc3OC)c(F)cn2)n1 (racemic) [Example 6, (rac)-5-Fluoro-4-(4-fluoro-2-methoxyphenyl)-N-{6-methoxy-4-[(S-methylsulfonimidoyl)methyl]pyridin-2-yl}pyridin-2-amine] | pIC50 ([2]; Homo sapiens, MOLM-13, 72 h): 7.96; pIC50 ([3]; Homo sapiens, A2780, 96 h): 7.96
8.70 | 7.41 | CCOC(=O)N=S(C)(=O)Cc1cc(Nc2cc(-c3ccc(F)cc3OC)c(F)cn2)nc(OC)c1 (racemic) [Example 15, (rac)-ethyl{[(2-{[5-fluoro-4-(4-fluoro-2-methoxyphenyl)pyridin-2-yl]amino}-6-methoxypyridin-4-yl)methyl](methyl)oxido-λ^6-sulfanylidene}carbamate] | 
8.52 | 7.37 | COc1cc(F)ccc1-c1cc(Nc2cc(CS(C)(=O)=NC(=O)C(F)(F)F)cc(F)n2)ncc1F (racemic) [Example 18, (rac)-2,2,2-Trifluoro-N-{[(2-fluoro-6-{[5-fluoro-4-(4-fluoro-2-methoxyphenyl)pyridin-2-yl]amino}pyridin-4-yl)methyl](methyl)oxido-λ^6-sulfanylidene}acetamide] | 
8.52 | 7.28 | CCS(=N)(=O)Cc1ccnc(Nc2cc(-c3ccc(F)cc3OC)c(F)cn2)c1 (racemic) [Example 30, (rac)-N-{4-[(S-Ethylsulfonimidoyl)-methyl]pyridin-2-yl}-5-fluoro-4-(4-fluoro-2-methoxyphenyl)pyridin-2-amine] | 
8.52 |  | COc1cc(F)ccc1-c1cc(Nc2cc(CS(C)(=N)=O)cc(C(F)F)n2)ncc1F (racemic) [Example 31, (rac)-N-{6-(Difluoromethyl)-4-[(S-methylsulfonimidoyl)methyl]pyridin-2-yl}-5-fluoro-4-(4-fluoro-2-methoxyphenyl)pyridin-2-amine] | 
8.30 |  | COc1cc(F)ccc1-c1cc(Nc2cc(CS(C)(=N)=O)cc(F)n2)ncc1F (single isomer, unassigned; (+)) [Example 19, (+)-5-Fluoro-4-(4-fluoro-2-methoxyphenyl)-N-{6-fluoro-4-[(S-methylsulfonimidoyl)methyl]pyridin-2-yl}pyridin-2-amine] | 
8.70 | 7.35 | COc1cc(F)ccc1-c1cc(Nc2cc(CS(C)(=N)=O)cc(F)n2)ncc1F (single isomer, unassigned; (-)) [Example 20, (−)-5-Fluoro-4-(4-fluoro-2-methoxyphenyl)-N-{6-fluoro-4-[(S-methylsulfonimidoyl)methyl]pyridin-2-yl}pyridin-2-amine] | 
8.52 |  | CCOc1cc(F)ccc1-c1cc(Nc2cc(CS(C)(=N)=O)cc(F)n2)ncc1F (single isomer, unassigned; (-)) [Example 29, (−)-4-(2-Ethoxy-4-fluorophenyl)-5-fluoro-N-{6-fluoro-4-[(S-methylsulfonimidoyl)methyl]pyridin-2-yl}pyridin-2-amine] | pIC50 [1]: 7.00
